Results on 47 molecules are retold here after US12428415B2, “Matriptase 2 inhibitors and uses thereof” (Disc Medicine, Inc., priority 2018, dated 2025).

The assay deals with T1, Human Recombinant Matriptase 2 (Homo sapiens, UniProt Q8IU80).
T1 construct: purchased Enzo Life Sciences (an in-house preparation was also used) ALX-201-752-1
T1 sequence (Q8IU80 1-811): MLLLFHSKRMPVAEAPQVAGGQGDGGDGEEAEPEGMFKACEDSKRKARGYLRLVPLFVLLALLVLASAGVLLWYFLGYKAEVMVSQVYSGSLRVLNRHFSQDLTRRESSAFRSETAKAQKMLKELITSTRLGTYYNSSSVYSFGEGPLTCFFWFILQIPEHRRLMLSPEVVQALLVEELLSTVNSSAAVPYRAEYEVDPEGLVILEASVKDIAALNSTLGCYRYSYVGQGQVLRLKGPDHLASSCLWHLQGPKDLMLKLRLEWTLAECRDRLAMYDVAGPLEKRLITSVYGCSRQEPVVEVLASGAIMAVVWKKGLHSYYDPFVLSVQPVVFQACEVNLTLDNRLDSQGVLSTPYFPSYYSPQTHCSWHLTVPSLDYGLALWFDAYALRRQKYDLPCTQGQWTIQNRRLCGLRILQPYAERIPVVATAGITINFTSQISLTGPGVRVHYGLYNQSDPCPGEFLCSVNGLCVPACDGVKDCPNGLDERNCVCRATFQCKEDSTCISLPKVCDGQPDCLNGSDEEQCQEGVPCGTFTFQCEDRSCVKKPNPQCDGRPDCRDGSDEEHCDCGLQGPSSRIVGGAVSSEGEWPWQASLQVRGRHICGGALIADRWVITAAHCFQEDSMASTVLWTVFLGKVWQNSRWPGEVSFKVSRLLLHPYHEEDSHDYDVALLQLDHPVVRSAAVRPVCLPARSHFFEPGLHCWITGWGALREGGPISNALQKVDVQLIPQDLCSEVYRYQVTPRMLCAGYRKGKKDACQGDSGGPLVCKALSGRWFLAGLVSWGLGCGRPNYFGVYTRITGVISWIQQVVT
Briefly: Matriptase 2 fluorescence based inhibition assay, Method B (50 mM TRIS pH 7.5, 150 mM NaCl, 0.01% gelatin). It counts as biochemical. The following applies: 1 uM compound, Assay Used = B (Method B); for inhibition at 1 µM: read-out: Mar-2 % inhibition at 1 uM. Summed up: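 Commercial (7 nM) or in-house (15 nM) enzyme preincubated 30 min with compound at 25° C, then 100 μM Boc-Gln-Ala-Arg-AMC added; fluorescence (Ex 360/Em 480 nm) read at 60 min. 1% DMSO final. IC50 from variable-slope sigmoidal fit of % inhibition.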

Structures are written as SMILES.

For `CCOC(=O)c1cc2ccc(C(=N)N)cc2n1Cc1cc(Oc2ncccn2)cc2ccccc12` [Compound I-598, Ethyl 6-carbamimidoyl-1-((3-(pyrimidin-2-yloxy)naphthalen-1-yl)methyl)-1H-indole-2-carboxylate], the inhibition at 1 µM lay within 75 to 100%. For `N=C(N)c1ccc2cc(C(=O)N[C@H]3CC[C@H](N)CC3)n(Cc3cc(Oc4ccccn4)cc4ccccc34)c2c1` [Compound I-599], the inhibition at 1 µM was in the range of 75 to 100%. Still for that read-out and setting: the value for `N=C(N)c1ccc2cc(C(=O)NCCO)n(Cc3cccc4ccccc34)c2c1` [Compound I-600] was 75 to 100%; that for `CCOC(=O)c1cc2ccc(C(=N)N)cc2n1Cc1cccc2ccccc12` [Compound I-601] was 50 to 75%; that for `COC(=O)NCCOC(=O)c1cc2ccc(C(=N)N)cc2n1Cc1cccc2ccccc12` [Compound I-602] was 50 to 75%. For the molecule `CC(C)(C)OC(=O)Nc1cc2ccc(C(=N)N)cc2n1Cc1cc(S(=O)(=O)c2ccccc2)cc2ccccc12` [Compound I-603, tert-butyl (6-carbamimidoyl-1-((3-(phenylsulfonyl)naphthalen-1-yl)methyl)-1H-indol-2-yl)carbamate], the inhibition at 1 µM was 25 to 50%. As for `N=C(N)c1ccc2cc(C(=O)NCC3(CN)CCCCC3)n(Cc3cccc4ccccc34)c2c1` [Compound I-604], the inhibition at 1 µM was in the range of 75 to 100%. As for `NCc1ccc2cc(C(=O)N[C@H]3CC[C@H](N)CC3)n(Cc3cc(Oc4ncccn4)cc4ccccc34)c2c1` [Compound I-605], the inhibition at 1 µM was 50 to 75%. In the case of `Cn1c(C(=O)O)c(Cc2cc(Oc3ccccc3)cc3ccccc23)c2cc(C(=N)N)ccc21` [Compound I-606], the inhibition at 1 µM was in the range of 25 to 50%.

For the molecule `CCOC(=O)c1cc2ccc(C(=N)NC(=O)OCC(C)C)cc2n1Cc1cc(Oc2ncccn2)cc2ccccc12` [Compound I-607], the inhibition at 1 µM is 0 to 25%. Same read-out and setting: the value for `N=C(N)c1ccc2cc(C(=O)N[C@H]3CC[C@H](N)CC3)n(Cc3cc(OS(=O)(=O)c4ccccc4)cc4ccccc34)c2c1` [Compound I-608] was 75 to 100%; that for `CNC(=O)c1cc2ccc(C(=N)N)cc2n1Cc1cccc2ccccc12` [Compound I-609] was 50 to 75%; that for `N=C(N)c1ccc2cc(C(=O)O)n(Cc3cc(Oc4cccnn4)cc4ccccc34)c2c1` [Compound I-610] was 25 to 50%. Still for that read-out and setting: as for `N=C(N)c1ccc2cc(C(=O)OCCO)n(Cc3cccc4ccccc34)c2c1` [Compound I-611], the figure is 50 to 75%; as for `Cc1ccc(S(=O)(=O)Oc2cc(Cn3c(C(=O)N[C@H]4CC[C@H](N)CC4)cc4ccc(C(=N)N)cc43)c3ccccc3c2)cc1` [Compound I-614], 75 to 100%.

In the case of `N=C(N)c1ccc2cc(C(=O)N[C@H]3CC[C@H](N)CC3)n(Cc3cc(Oc4ccccc4F)cc4ccccc34)c2c1` [Compound I-615], the inhibition at 1 µM was in the range of 75 to 100%.

Consider `CC1(O)CCC(OC(=O)c2cc3ccc(C(=N)N)cc3n2Cc2cc(Oc3ccccc3)cc3ccccc23)CC1` (centres unmarked) [Compound I-617], for which the inhibition at 1 µM was 0 to 25%. On to `N=C(N)c1ccc2cc(C(=O)O)n(Cc3cc(Oc4ccncn4)cc4ccccc34)c2c1` [Compound I-618], for which the inhibition at 1 µM fell in the range of 50 to 75%.

On to `N=C(N)c1ccc2c(CO)c(C(=O)N[C@H]3CC[C@H](N)CC3)n(Cc3cccc4ccccc34)c2c1` [Compound I-619], for which the “Mar-2 % inhibition at 1 uM” value is recorded as “A (A represents 0%≤I≤25%)”. For `N=C(N)Nc1ccc2cc(C(=O)N[C@H]3CC[C@H](N)CC3)n(Cc3cccc4ccccc34)c2c1` [Compound I-620, N-((1r,4r)-4-aminocyclohexyl)-6-guanidino-1-(naphthalen-1-ylmethyl)-1H-indole-2-carboxamide], the inhibition at 1 µM fell in the range of 0 to 25%. On the same count and under the same terms, as for `N=C(N)c1ccc2cc(C(=O)O)n(Cc3cc(OS(=O)(=O)c4ccccc4)cc4ccccc34)c2c1` [Compound I-621], the figure is 75 to 100%; as for `CC(C)COC(=O)NC(=N)c1ccc2cc(C(=O)O)n(Cc3cc(Oc4ccccc4)cc4ccccc34)c2c1` [Compound I-622], 0 to 25%; as for `CS(=O)(=O)Oc1cc(Cn2c(C(=O)O)cc3ccc(C(=N)N)cc32)c2ccccc2c1` [Compound I-623], 50 to 75%.

For the molecule `CN(C)C(=O)c1cc2ccc(C(=N)N)cc2n1Cc1cccc2ccccc12` [Compound I-624], the inhibition at 1 µM is 25 to 50%. For `N=C(N)c1ccc2cc(C(=O)O)n(Cc3cc(Oc4cnccn4)cc4ccccc34)c2c1` [Compound I-625], the inhibition at 1 µM was in the range of 50 to 75%. Still for that read-out and setting: the value for `N=C(N)c1ccc2cc(C(=O)O)n(Cc3cc(Oc4cccnc4)cc4ccccc34)c2c1` [Compound I-626] was 25 to 50%; that for `CCOC(=O)c1cc2ccc(C(=N)NC(=O)OCC(C)C)cc2n1Cc1cc(Oc2ccccc2)cc2ccccc12` [Compound I-627] was 0 to 25%; that for `N=C(N)c1ccc2cc(C(=O)O)n(Cc3cc(Oc4ccccn4)cc4ccccc34)c2c1` [Compound I-628] was 75 to 100%. Still for that read-out and setting: as for `N=C(N)c1ccc2cc(C(=O)OCCN)n(Cc3cc(Oc4ccccc4)cc4ccccc34)c2c1` [Compound I-629], the figure is 75 to 100%; as for `CCOC(=O)c1cc2ccc(/C(N)=N\O)cc2n1Cc1cc(Oc2ncccn2)cc2ccccc12` [Compound I-630, ethyl (Z)-6-(N′-hydroxycarbamimidoyl)-1-((3-(pyrimidin-2-yloxy)naphthalen-1-yl)methyl)-1H-indole-2-carboxylate], 0 to 25%. Still for that read-out and setting: the value for `N=C(N)c1ccc2cc(C(=O)N[C@H]3CC[C@H](N)CC3)n(Cc3cc(Oc4ccsc4)cc4ccccc34)c2c1` [Compound I-631] was 75 to 100%. For the molecule `N=C(N)c1ccc2cc(C(=O)O)n(Cc3cc(Oc4ccncc4)cc4ccccc34)c2c1` [Compound I-632], the inhibition at 1 µM lay within 50 to 75%. Take `Cc1c(C(=O)N[C@H]2CC[C@H](N)CC2)n(Cc2cccc3ccccc23)c2cc(C(=N)N)ccc12` [Compound I-633]: the inhibition at 1 µM was 75 to 100%. The same measure, in the same setting: as for `N=C(N)c1ccc2cc(C(=O)NCCN)n(Cc3cc(Oc4ccccc4)cc4ccccc34)c2c1` [Compound I-634], the figure is 75 to 100%; as for `NCc1ccc2cc(C(=O)N[C@H]3CC[C@H](N)CC3)n(Cc3cc(Oc4ccccc4)cc4ccccc34)c2c1` [Compound I-635], 50 to 75%; as for `NCc1ccc2cc(C(=O)N[C@H]3CC[C@H](N)CC3)n(Cc3cc(S(=O)(=O)c4ccccc4)cc4ccccc34)c2c1` [Compound I-636], 25 to 50%. Still for that read-out and setting: the value for `Cn1c(C(=O)O)c(-c2ccc3ccccc3c2)c2cc(C(=N)N)ccc21` [Compound I-637] was 0 to 25%; that for `Cc1c(C(=O)O)n(Cc2cccc3ccccc23)c2cc(C(=N)N)ccc12` [Compound I-638, 6-carbamimidoyl-3-methyl-1-(naphthalen-1-ylmethyl)-1H-indole-2-carboxylic Acid] was 50 to 75%; that for `N=C(N)c1ccc2cc(C(=O)O)n(Cc3cc(Oc4ccc(N)cc4F)cc4ccccc34)c2c1` [Compound I-639] was 50 to 75%.

Consider `Cn1c(C(=O)O)c(Cc2cccc3ccccc23)c2cc(/C(N)=N/O)ccc21` [Compound I-641], for which the inhibition at 1 µM is 0 to 25%. As for `N=C(N)c1ccc2cc(C(=O)N[C@H]3CC[C@H](N)CC3)n(Cc3ccc(C(N)=O)c4ccccc34)c2c1` [Compound I-642], the “Mar-2 % inhibition at 1 uM” value is given as “C (C represents 50%≤I≤75%)”. Turning to `N/C(=N/O)c1ccc2cc(C(=O)O)n(Cc3cc(Oc4ncccn4)cc4ccccc34)c2c1` [Compound I-643, (Z)-6-(N′-hydroxycarbamimidoyl)-1-((3-(pyrimidin-2-yloxy)naphthalen-1-yl)methyl)-1H-indole-2-carboxylic Acid], the inhibition at 1 µM lay within 0 to 25%. With `N=C(N)c1ccc2cc(N3CCOCC3)n(Cc3cccc4ccccc34)c2c1` [Compound I-644, 2-morpholino-1-(naphthalen-1-ylmethyl)-1H-indole-6-carboximidamide], the inhibition at 1 µM fell in the range of 25 to 50%. Turning to `N=C(N)c1ccc2cc(C(=O)NC3CCC(N)CC3)n(Cc3ccc(C(=N)N)c4ccccc34)c2c1` (centres unmarked) [Compound I-645], the inhibition at 1 µM lay in the range of 25 to 50%. Consider `N=C(N)c1ccc2cc(C(=O)N[C@H]3CC[C@H](N)CC3)n(Cc3ccccc3-c3ccccc3)c2c1` [Compound I-646], for which the “Mar-2 % inhibition at 1 uM” value was “A (A represents 0%≤I≤25%)”. As for `Cc1ccc(S(=O)(=O)Oc2cc(Cn3c(C(=O)O)cc4ccc(C(=N)N)cc43)c3ccccc3c2)cc1` [Compound I-647], the inhibition at 1 µM fell in the range of 75 to 100%. Still for that read-out and setting: the value for `N=C(N)c1ccc2cc(C(=O)O)n(Cc3cc(OC(F)F)cc4ccccc34)c2c1` [Compound I-648] was 50 to 75%.

As a reminder, the inhibition is the change of the read-out against control, counted positive when it falls.
